The values that follow come from patent US20090074761A1, “Therapeutic beta-glucan combinations” (priority 2007, published 2009).

In data set [1] the test system is SKOV-3 tumors. Briefly: SKOV-3 xenograft model in ICR SCID mice (FIG. 4A, 4B). The format is in vivo, mouse. The text has this: (§1) Additional evidence was gathered to show efficacy of in vivo therapy. ICR SCID mice implanted with SKOV-3 cells were compared to ICR SCID mice implanted with Colo38 cells as a control. […] Most of these tumors still retained their sizes before therapy. More importantly, 86% of these mice achieved long-term survival compared with 43% of tumor-bearing mice treated with anti-VEGF mAb only (FIG. 4B).

Data set [2] has as its system SKOV-3 cells. The format is cell-based, human. How it is done:
As described above, β-glucan functions with anti-tumor antibodies to activate complement receptor 3 (CR3) and recruit neutrophils that mediate CR3 (iC3b-receptor)-dependent cytotoxicity of tumors coated with iC3b. […] SKOV-3 cells were incubated with anti-VEGF mAb or anti-Her-2/neu mAb in the presence of human complement. Cells were then washed and co-cultured with human neutrophils (E:T ratio=20:1) in the presence of soluble β-glucan. Cytotoxicity was calculated as in Li et al., J Immunol 177:1661-1669.

Data set [3] relates to MDA-MB-483, HBL-100, Colo38 cells. Kind of data set: complement activation (iC3b deposition), flow cytometry, cell lines negative for membrane-bound VEGF. The format is cell-based, human. The following applies: tumor cell lines negative for membrane-bound VEGF, mouse serum as complement source. On the procedure:
Next, the ability of anti-VEGF mAb to bind surface-bound VEGF and activate complement, which leads to iC3b deposition, was examined. SKOV-3 cells were mixed with anti-VEGF mAb in the presence of a 1:4 dilution of mouse serum (complement source). For every one million tumor cells, a 100 μL volume of diluted mouse serum containing 10 μg/mL working dilution of anti-VEGF mAb was used. Tumor cells were mixed and incubated at 37° C. for 30 min. The cells were washed in ice cold flow cytometry staining buffer and the cell pellet was resuspended in […] diluted detecting antibody. The cells were incubated on ice for 30 min. and washed twice. Propidium iodide was used to exclude dead cells. The results of cell lines MDA-MB-483, HBL-100, SKOV-3 and Colo38 are shown in histograms 26, 28, 30 and 32 of FIG. 1C, respectively. Cells incubated with anti-VEGF mAb in the presence of complement and stained with anti-mouse iC3b-FITC mAb are represented by bold lines. Controls included cells incubated with mouse complement (dotted line) or without mouse complement (filled gray) and then stained with anti-mouse iC3b-FITC mAb.
On the technique in general: Flow cytometry measures light scatter and fluorescence of single cells or particles in a stream.

Data set [4] relates to SKOV-3 tumors. Kind of data set: SKOV-3 xenograft in ICR SCID mice, i.v. therapy for 4 weeks (FIG. 3). Format: in vivo, mouse. The following applies: 1.2 mg β-glucan twice weekly, 0.2 mg bevacizumab every third day, i.v. 4 weeks; start 300 mm^3. The text has this: After SKOV-3 cell s.c. implantation, tumors were allowed to grow for over 17 days until they were 300 mm^3. […] Mice were sacrificed when the tumors reached 15 mm in diameter.

Data set [5] relates to Colo38 tumors. Briefly: Colo38 xenograft model in ICR SCID mice (FIG. 4C). Format: in vivo, mouse. The settings on record: Colo38 xenograft (membrane-bound VEGF negative).
From the text: as §1

Data set [6] concerns SKOV-3 tumors. Briefly: immunohistochemistry of tumor sections: iC3b deposition and neutrophil infiltration (FIG. 5). The format is in vivo, mouse. The following applies: for neutrophil infiltration in tumors: anti-Gr-1-PE staining of tumor sections; for iC3b deposition in tumors: anti-iC3b-FITC staining of tumor sections. The text has this:
Interaction between the complement activation product iC3b and the I-domain of CR3 provides the first signal for CR3 priming. Engagement of β-glucan with the lectin-like domain of CR3 is additionally required for the full activation of CR3. The dual ligation of CR3 leads to neutrophil CR3-dependent cellular cytotoxicity (Li et al., J Immunol 177:1661-1669). Neutrophil trafficking within tumors is also critical for successful combined β-glucan with anti-tumor mAb therapy (Allendorf et al., J Immunol 174:7050-7056). Therefore, immunohistochemistry studies were carried out to examine complement activation and neutrophil infiltration within tumors after treatment with different regimens.
First, the tumor sections from four groups were stained with an anti-iC3b-FITC and anti-VEGF-PE mAbs. […] Second, the tumor sections were stained with anti-Gr-1-PE mAb to detect neutrophil infiltration.

Data set [7] relates to SKOV-3 tumors. Kind of data set: tumor blood vessel development, anti-CD31 staining of tumor sections (FIG. 6). Format: in vivo, mouse. The following applies: anti-CD31-biotin staining, compared to PBS or β-glucan alone. The text has this:
To observe tumor blood vessel development after anti-VEGF mAb therapy, the tumor sections were stained with anti-CD31-biotin mAb.

For the substance bevacizumab, in data set [1], the “mice achieving long-term survival” value was 43% and the tumor burden result is reported as “significantly reduced tumor burden”. In data set [2], the cytotoxicity stood at 0.2%. In addition, in data set [3], the “complement activation (iC3b deposition)” value is listed as “negative for complement activation”. This substance displayed a tumor size reached in data set [4] of 800±250 mm^3. For the same substance, in data set [5], the tumor burden entry is “significantly reduced tumor burden”. Further, in data set [6], the “neutrophil infiltration in tumors” value is on record as “significant neutrophil infiltration” and the “iC3b deposition in tumors” value was “massive iC3b deposition”. Also, the tumor microvessel density entry in data set [7] is on record as “decreased tumor microvessel density”.
“poly-(1-6)-β-D-glucopyranosyl-(1-3)-β-D-glucopyranose [β-glucan]”: the tumor burden entry in data set [1] is listed as “did not show any significant tumor regression”. In addition, in data set [4], the tumor size reached worked out at 1500±500 mm^3. In data set [6], the “neutrophil infiltration in tumors” value is “paucity of iC3b deposition and neutrophil infiltration”; the “iC3b deposition in tumors” value was “no iC3b deposition”.
